Our source for the IC50 values is patent US20100041642A1, “UREA INHIBITORS OF MAP KINASES” (LOCUS PHARMACEUTICALS, INC., priority 2008, published 2010).

The structures appear in SMILES notation. Where only a bound is given, the exact number is not on record here.

Sequence of p38 (Q16539 whole entry, the tested form may be a part): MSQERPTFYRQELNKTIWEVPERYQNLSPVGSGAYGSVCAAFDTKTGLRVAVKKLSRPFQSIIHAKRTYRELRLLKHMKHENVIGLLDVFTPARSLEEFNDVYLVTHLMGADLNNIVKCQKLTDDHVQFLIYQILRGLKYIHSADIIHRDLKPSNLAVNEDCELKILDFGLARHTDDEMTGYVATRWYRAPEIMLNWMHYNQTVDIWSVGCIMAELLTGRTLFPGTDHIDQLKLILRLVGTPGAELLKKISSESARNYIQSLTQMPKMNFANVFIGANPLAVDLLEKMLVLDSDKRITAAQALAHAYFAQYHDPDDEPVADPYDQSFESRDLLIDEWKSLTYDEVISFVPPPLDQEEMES

In this test the target is p38 (Homo sapiens, UniProt Q16539). The test is described as follows: Protein Kinase Assay (33P incorporation from γ-[33P]ATP into GST-ATF-2). Format: biochemical. As to conditions: 2 nM p38, preincubated 20 min at 30° C.; 10 uM cold ATP, 2 uM GST-ATF2, 70 min; read-out: ACT. (Activity), IC50 category in Protein Kinase Assay. The method, then:
Protein Kinase Assay. The protein kinase activity of p38 was determined by measuring the incorporation of ^33P from γ-[^33P]ATP into the GST-ATF-2 substrate, amino acids 19-96 (Upstate, N.Y. USA). The reactions were carried out in a final volume of 50 μL of 24 mM Tris-HCl buffer, pH 7.5, containing 13 mM MgCl2, 12% Glycerol, 2% DMSO, 2 mM DTT, […] of γ-[^33P]ATP (1000 Ci/mmol; 1 Ci=37 GBq) (GE Healthcare, Piscataway, N.J.), 10 uM cold ATP (GE Healthcare, Piscataway, N.J.), and 2 uM GST-ATF2. Compounds were preincubated with 2 nM p38 for 20 min at 30° C.; the reactions were initiated by the addition of GST-ATF2 and ATP and incubated for 70 min at 30° C. before being stopped by the addition of 10 μL of 600 mM phosphoric acid. The phosphorylated substrate was captured on phosphocellulose 96-well plate (Millipore MAPHNOB 10), washed with 100 mM phosphoric acid, and counted in a BeckmenCoulter LS6500 liquid scintillation counter. […] (Activity).
`CCc1ccc(-c2cc(NC(=O)Nc3sc(C(C)(C)C)cc3C(=O)N3CCN(C)C(=O)C3(C)C)cc(F)c2C)cn1` [1-(5-tert-butyl-3-(2,2,4-trimethyl-3-oxopiperazine-1-carbonyl)thiophen-2-yl)-3-(3-(6-ethylpyridin-3-yl)-5-fluoro-4-methylphenyl)urea]: the IC50 is < 0.1 µM.
Next, `Cc1ccc(NC(=O)Nc2sc(C(C)(C)C)cc2C(=O)N2CCN(C)C(=O)C2(C)C)cc1-c1ccc(OC(C)C)nc1` [1-(5-tert-butyl-3-(2,2,4-trimethyl-3-oxopiperazine-1-carbonyl)thiophen-2-yl)-3-(3-(6-isopropoxypyridin-3-yl)-4-methylphenyl)urea]: < 0.1 µM; `COc1ccc(-c2cc(NC(=O)Nc3sc(C(C)(C)C)cc3C(=O)N3CCN(C)C(=O)C3(C)C)ccc2C)cn1` [1-(5-tert-butyl-3-(2,2,4-trimethyl-3-oxopiperazine-1-carbonyl)thiophen-2-yl)-3-(3-(6-methoxypyridin-3-yl)-4-methylphenyl)urea]: < 0.1 µM; `COc1ccc(-c2cc(NC(=O)Nc3sc(C(C)(C)C)cc3C(=O)N3CCN(C)C(=O)C3(C)C)cc(F)c2C)cn1` [1-(5-tert-butyl-3-(2,2,4-trimethyl-3-oxopiperazine-1-carbonyl)thiophen-2-yl)-3-(3-fluoro-5-(6-methoxypyridin-3-yl)-4-methylphenyl)urea]: < 0.1 µM.
Next, `Cc1ccc(NC(=O)Nc2sc(C(C)(C)C)cc2C(=O)N2CCN(C)C(=O)C2(C)C)cc1N1C(=O)CN(C)C1=O` [1-(5-tert-butyl-3-(2,2,4-trimethyl-3-oxopiperazine-1-carbonyl)thiophen-2-yl)-3-(4-methyl-3-(3-methyl-2,5-dioxoimidazolidin-1-yl)phenyl)urea]: < 0.1 µM.
Next, `Cc1ccc(NC(=O)Nc2sc(C(C)(C)C)cc2C(=O)N2CCN(C)C(=O)C2(C)C)cc1-c1ccc(CN2CCOCC2)cn1` [1-(5-tert-butyl-3-(2,2,4-trimethyl-3-oxopiperazine-1-carbonyl)thiophen-2-yl)-3-(4-methyl-3-(5-(morpholinomethyl)pyridin-2-yl)phenyl)urea]: < 0.1 µM.
Regarding `Cc1ccc(NC(=O)Nc2sc(C(C)(C)C)cc2C(=O)N2CCN(C)C(=O)C2(C)C)cc1-c1ccc(C(C)N2CCOCC2)nc1` (centres unmarked) [1-(5-tert-butyl-3-(2,2,4-trimethyl-3-oxopiperazine-1-carbonyl)thiophen-2-yl)-3-(4-methyl-3-(6-(1-morpholinoethyl)pyridin-3-yl)phenyl)urea], the IC50 was < 0.1 µM.
Next, `Cc1ccc(NC(=O)Nc2sc(C(C)(C)C)cc2C(=O)N2CCN(C)C(=O)C2(C)C)cc1-c1ccc(N2CCN(C)CC2)nc1` [1-(5-tert-butyl-3-(2,2,4-trimethyl-3-oxopiperazine-1-carbonyl)thiophen-2-yl)-3-(4-methyl-3-(6-(4-methylpiperazin-1-yl)pyridin-3-yl)phenyl)urea]: < 0.1 µM; `Cc1nnc(-c2ccc(-c3cc(NC(=O)Nc4sc(C(C)(C)C)cc4C(=O)N4CCN(C)C(=O)C4(C)C)ccc3C)cn2)o1` [1-(5-tert-butyl-3-(2,2,4-trimethyl-3-oxopiperazine-1-carbonyl)thiophen-2-yl)-3-(4-methyl-3-(6-(5-methyl-1,3,4-oxadiazol-2-yl)pyridin-3-yl)phenyl)urea]: < 0.1 µM; `Cc1ccc(NC(=O)Nc2sc(C(C)(C)C)cc2C(=O)N2CCN(C)C(=O)C2(C)C)cc1-c1ccc(CN2CCN(C)CC2)nc1` [1-(5-tert-butyl-3-(2,2,4-trimethyl-3-oxopiperazine-1-carbonyl)thiophen-2-yl)-3-(4-methyl-3-(6-((4-methylpiperazin-1-yl)methyl)pyridin-3-yl)phenyl)urea]: < 0.1 µM.
Next, `Cc1ccc(NC(=O)Nc2sc(C(C)(C)C)cc2C(=O)N2CCN(C)C(=O)C2(C)C)cc1-c1ccc(C(=O)N2CCOCC2)nc1` [1-(5-tert-butyl-3-(2,2,4-trimethyl-3-oxopiperazine-1-carbonyl)thiophen-2-yl)-3-(4-methyl-3-(6-(morpholine-4-carbonyl)pyridin-3-yl)phenyl)urea]: < 0.1 µM; `Cc1ccc(NC(=O)Nc2sc(C(C)(C)C)cc2C(=O)N2CCN(C)C(=O)C2(C)C)cc1-c1ccc(CN2CCOCC2)nc1` [1-(5-tert-butyl-3-(2,2,4-trimethyl-3-oxopiperazine-1-carbonyl)thiophen-2-yl)-3-(4-methyl-3-(6-(morpholinomethyl)pyridin-3-yl)phenyl)urea]: < 0.1 µM; `Cc1ccc(NC(=O)Nc2sc(C(C)(C)C)cc2C(=O)N2CCN(C)C(=O)C2(C)C)cc1-c1ccc(CN2CCCC2)nc1` [1-(5-tert-butyl-3-(2,2,4-trimethyl-3-oxopiperazine-1-carbonyl)thiophen-2-yl)-3-(4-methyl-3-(6-(pyrrolidin-1-ylmethyl)pyridin-3-yl)phenyl)urea]: < 0.1 µM.
Under `Cc1ccc(-c2cc(NC(=O)Nc3sc(C(C)(C)C)cc3C(=O)N3CCN(C)C(=O)C3(C)C)ccc2C)cn1` [1-(5-tert-butyl-3-(2,2,4-trimethyl-3-oxopiperazine-1-carbonyl)thiophen-2-yl)-3-(4-methyl-3-(6-methylpyridin-3-yl)phenyl)urea] stands < 0.1 µM.
With `Cc1ccc(NC(=O)Nc2sc(C(C)(C)C)cc2C(=O)N2CCN(C)C(=O)C2(C)C)cc1-c1ccc(N2CCOCC2)nc1` [1-(5-tert-butyl-3-(2,2,4-trimethyl-3-oxopiperazine-1-carbonyl)thiophen-2-yl)-3-(4-methyl-3-(6-morpholinopyridin-3-yl)phenyl)urea], the IC50 was < 0.1 µM.
As for `Cc1ncc(NC(=O)Nc2sc(C(C)(C)C)cc2C(=O)N2CCN(C)C(=O)C2(C)C)cc1C#CC1CC1` [1-(5-tert-butyl-3-(2,2,4-trimethyl-3-oxopiperazine-1-carbonyl)thiophen-2-yl)-3-(5-(cyclopropylethynyl)-6-methylpyridin-3-yl)urea], the IC50 was < 0.1 µM.
Next, `Cc1ccc(NC(=O)Nc2oc(C(C)(C)C)cc2C(=O)N2CCNC(=O)C2(C)C)cc1-c1ccncc1` [1-(5-tert-butyl-3-(2,2-dimethyl-3-oxopiperazine-1-carbonyl)furan-2-yl)-3-(4-methyl-3-(pyridin-4-yl)phenyl)urea]: < 0.1 µM; `COc1ccc(-c2cc(NC(=O)Nc3sc(C(C)(C)C)cc3C(=O)N3CCNC(=O)C3(C)C)c(F)cc2C)cn1` [1-(5-tert-butyl-3-(2,2-dimethyl-3-oxopiperazine-1-carbonyl)thiophen-2-yl)-3-(2-fluoro-5-(6-methoxypyridin-3-yl)-4-methylphenyl)urea]: < 0.1 µM; `Cc1c(NC(=O)Nc2sc(C(C)(C)C)cc2C(=O)N2CCNC(=O)C2(C)C)cccc1-c1ccc(N2CCOCC2)nc1` [1-(5-tert-butyl-3-(2,2-dimethyl-3-oxopiperazine-1-carbonyl)thiophen-2-yl)-3-(2-methyl-3-(6-morpholinopyridin-3-yl)phenyl)urea]: < 0.1 µM.
Next, `Cc1ccc(-c2ccc(N3CCOCC3)nc2)cc1NC(=O)Nc1sc(C(C)(C)C)cc1C(=O)N1CCNC(=O)C1(C)C` [1-(5-tert-butyl-3-(2,2-dimethyl-3-oxopiperazine-1-carbonyl)thiophen-2-yl)-3-(2-methyl-5-(6-morpholinopyridin-3-yl)phenyl)urea]: < 0.1 µM.
Under `Cc1ncc(NC(=O)Nc2sc(C(C)(C)C)cc2C(=O)N2CCNC(=O)C2(C)C)cc1-c1ccc(N2CCOCC2)nc1` [1-(5-tert-butyl-3-(2,2-dimethyl-3-oxopiperazine-1-carbonyl)thiophen-2-yl)-3-(2-methyl-6′-morpholino-3,3′-bipyridin-5-yl)urea] stands < 0.1 µM.
For `CC(C)(C)c1cc(C(=O)N2CCNC(=O)C2(C)C)c(NC(=O)Nc2cccc(-c3ccnc(F)c3)c2)s1` [1-(5-tert-butyl-3-(2,2-dimethyl-3-oxopiperazine-1-carbonyl)thiophen-2-yl)-3-(3-(2-fluoropyridin-4-yl)phenyl)urea], the 50% inhibitory concentration (IC50) was < 0.1 µM.
Next, `Cc1nc(-c2cccc(NC(=O)Nc3sc(C(C)(C)C)cc3C(=O)N3CCNC(=O)C3(C)C)c2)cs1` [1-(5-tert-butyl-3-(2,2-dimethyl-3-oxopiperazine-1-carbonyl)thiophen-2-yl)-3-(3-(2-methylthiazol-4-yl)phenyl)urea]: < 0.1 µM.
Next, `Cc1ccc(NC(=O)Nc2sc(C(C)(C)C)cc2C(=O)N2CCNC(=O)C2(C)C)cc1-c1c(C)noc1C` [1-(5-tert-butyl-3-(2,2-dimethyl-3-oxopiperazine-1-carbonyl)thiophen-2-yl)-3-(3-(3,5-dimethylisoxazol-4-yl)-4-methylphenyl)urea]: < 0.1 µM.
Next, `COCCOCC#Cc1cc(NC(=O)Nc2sc(C(C)(C)C)cc2C(=O)N2CCNC(=O)C2(C)C)ccc1C` [1-(5-tert-butyl-3-(2,2-dimethyl-3-oxopiperazine-1-carbonyl)thiophen-2-yl)-3-(3-(3-(2-methoxyethoxy)prop-1-ynyl)-4-methylphenyl)urea]: < 0.1 µM; `CN1CCN(c2cccc(NC(=O)Nc3sc(C(C)(C)C)cc3C(=O)N3CCNC(=O)C3(C)C)c2)CC1` [1-(5-tert-butyl-3-(2,2-dimethyl-3-oxopiperazine-1-carbonyl)thiophen-2-yl)-3-(3-(4-methylpiperazin-1-yl)phenyl)urea]: < 10 µM.

As usually defined, the IC50 is the point on the concentration scale where inhibition reaches its midpoint.
